From ChEMBL document CHEMBL5030535, “Conjugates Derived from Lapatinib Derivatives with Cancer Cell Stemness Inhibitors Effectively Reversed Drug Resistance in Triple-Negative Breast Cancer” (J Med Chem, 2021)
Active and inactive are the calls of the source. No cut-off for these calls is given here.

Legend:
MDA-MB-231 [1] = assay: Inhibition of cell stemness in drug-tolerant human MDA-MB-231/lapatinib cells assessed as inhibition of Jagged expression at 20 uM after 24 hrs by flow cytometry; assay type: functional, cell-based
[2] = biological target: T1, Epidermal growth factor receptor (Homo sapiens, UniProt P00533); assay: Inhibition of human EGFR phosphorylation in human drug-tolerant MDA-MB-231/lapatinib cells measured after 24 hrs by Western blot analysis; settings: dose 5-20 µM
T1 sequence (P00533 whole entry): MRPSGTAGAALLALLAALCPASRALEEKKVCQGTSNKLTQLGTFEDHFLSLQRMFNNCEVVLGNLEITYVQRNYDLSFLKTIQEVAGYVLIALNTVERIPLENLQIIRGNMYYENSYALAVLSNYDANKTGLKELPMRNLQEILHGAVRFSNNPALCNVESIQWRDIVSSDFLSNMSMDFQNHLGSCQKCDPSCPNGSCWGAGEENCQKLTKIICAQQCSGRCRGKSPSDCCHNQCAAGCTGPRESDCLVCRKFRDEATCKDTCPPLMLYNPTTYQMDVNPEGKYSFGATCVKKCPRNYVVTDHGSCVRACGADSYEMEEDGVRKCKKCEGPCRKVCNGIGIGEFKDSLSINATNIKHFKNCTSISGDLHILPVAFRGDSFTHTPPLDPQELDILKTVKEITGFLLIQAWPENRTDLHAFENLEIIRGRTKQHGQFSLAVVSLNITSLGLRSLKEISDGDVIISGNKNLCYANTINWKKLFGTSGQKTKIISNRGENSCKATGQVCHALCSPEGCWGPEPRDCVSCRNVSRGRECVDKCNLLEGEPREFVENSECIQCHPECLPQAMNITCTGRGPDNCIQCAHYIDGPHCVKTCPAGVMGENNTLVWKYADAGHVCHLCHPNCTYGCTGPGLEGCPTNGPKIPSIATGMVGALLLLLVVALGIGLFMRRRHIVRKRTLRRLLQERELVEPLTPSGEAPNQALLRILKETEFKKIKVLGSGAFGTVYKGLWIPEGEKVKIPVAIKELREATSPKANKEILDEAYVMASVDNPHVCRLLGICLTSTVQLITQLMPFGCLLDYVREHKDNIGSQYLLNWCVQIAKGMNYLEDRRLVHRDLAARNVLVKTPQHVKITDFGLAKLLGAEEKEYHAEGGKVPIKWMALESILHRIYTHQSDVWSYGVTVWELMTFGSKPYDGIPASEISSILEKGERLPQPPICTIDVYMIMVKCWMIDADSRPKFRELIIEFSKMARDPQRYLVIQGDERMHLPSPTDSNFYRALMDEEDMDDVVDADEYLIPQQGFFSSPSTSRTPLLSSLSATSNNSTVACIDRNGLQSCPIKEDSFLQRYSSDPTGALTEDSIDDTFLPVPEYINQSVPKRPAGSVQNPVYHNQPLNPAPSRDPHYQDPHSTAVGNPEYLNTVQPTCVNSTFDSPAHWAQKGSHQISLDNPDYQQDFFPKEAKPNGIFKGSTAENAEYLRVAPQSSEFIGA

MCF7 = assay: Antiproliferative activity against human MCF7 cells assessed as inhibition of cell growth measured after 72 hrs by MTT assay; assay type: functional, cell-based; settings: MCF7, 72 h
MDA-MB-231 [3] = assay: Inhibition of cell stemness in drug-tolerant human MDA-MB-231/lapatinib cells assessed as inhibition of Notch expression at 20 uM after 24 hrs by flow cytometry; assay type: functional, cell-based
MDA-MB-231 [4] = assay: Antiproliferative activity against human MDA-MB-231 cells assessed as inhibition of cell growth measured after 72 hrs by MTT assay; assay type: functional, cell-based; settings: MDA-MB-231, 72 h
MDA-MB-231 [5] = assay: Cell cycle arrest in human drug-tolerant MDA-MB-231/lapatinib cells assessed as accumulation at G0-G1phase at 20 uM incubated for 24 hrs by PI staining based flow cytometry; assay type: functional
MDA-MB-231 [6] = assay: Induction apoptosis in MDA-MB-231/ lapatinib cells assessed as apoptotic cells at 20 uM measured after 24 hrs by propidium iodide staining based flow cytometric analysis; assay type: functional, cell-based; settings: Homo sapiens
[7] = Resistant factor, ratio of IC50 for antiproliferative activity against drug-tolerant human MDA-MB-231 cells to IC50 for human MDA-MB-231 cells; assay type: functional
MDA-MB-231 [8] = assay: Antiproliferative activity against drug-tolerant human MDA-MB-231/lapatinib cells assessed as CD44+/CD24- cells measured at 20 uM after 24 hrs by MTT assay; assay type: functional
MDA-MB-231 [9] = assay: Inhibition of Wnt/beta-Catenin signaling in drug-tolerant human MDA-MB-231/lapatinib cells assessed as reduction in MMP7 mRNA level at 20 uM incubated for 24 hrs by qRT-PCR analysis; assay type: tissue-based
MDA-MB-231 [10] = assay: Cell cycle arrest in human MDA-MB-231 cells assessed as accumulation at G0-G1phase at 20 uM incubated for 24 hrs by PI staining based flow cytometry; assay type: functional
MDA-MB-231 [11] = assay: Inhibition of Wnt/beta-Catenin signaling in drug-tolerant human MDA-MB-231/lapatinib cells assessed as reduction in S100A4 mRNA level at 20 uM incubated for 24 hrs by qRT-PCR analysis
MDA-MB-231 [12] = assay: Inhibition of Wnt/beta-Catenin signaling in drug-tolerant human MDA-MB-231/lapatinib cells assessed as reduction in beta-catenin level at 20 uM incubated for 24 hrs by Western blot analysis
MDA-MB-231 [13] = assay: Antiproliferative activity against human drug tolerant MDA-MB-231/lapatinib cells assessed as inhibition of cell growth in measured after 72 hrs by MTT assay; assay type: functional, cell-based; settings: MDA-MB-231, 72 h
MDA-MB-231 [14] = assay: Inhibition of cell stemness in human drug-tolerant MDA-MB-231/lapatinib cells assessed as inhibition of CD44+/CD24- expression at 20 uM after 24 hrs by flow cytometry analysis; assay type: functional
MDA-MB-231 [15] = assay: Antiproliferative activity against drug-tolerant human MDA-MB-231/lapatinib cells assessed as CD44-positive cells measured after 24 hrs by MTT assay; assay type: functional, cell-based; settings: MDA-MB-231, 24 h
MDA-MB-231 [16] = assay: Inhibition of cell stemness in human drug-tolerant MDA-MB-231/lapatinib cells assessed as inhibition of Kif4 expression at 20 uM after 24 hrs by qRT-PCR analysis; assay type: functional, cell-based
[17] = biological target: T1, Epidermal growth factor receptor; assay: Inhibition of human EGFR in human drug-tolerant MDA-MB-231/lapatinib cells assessed as inhibition of phosphorylation ERK1/2 at T202/Y204 of measured after 24 hrs by Western blot analysis; settings: dose 5-20 µM
[18] = biological target: T1, Epidermal growth factor receptor; assay: Inhibition of human EGFR in human MDA-MB-231 cells assessed as inhibition of phosphorylation ERK1/2 at T202/Y204 of measured after 24 hrs by Western blot analysis; assay type: cell-based; settings: dose 5-20 µM
HUVEC = assay: Antiproliferative activity against human HUVEC cells assessed as inhibition of cell growth in measured after 72 hrs by MTT assay; assay type: cell-based
MDA-MB-231 [19] = assay: Inhibition of Wnt/beta-Catenin signaling in drug-tolerant human MDA-MB-231/lapatinib cells assessed as reduction in c-Myc mRNA level at 20 uM incubated for 24 hrs by qRT-PCR analysis
MDA-MB-231 [20] = assay: Inhibition of cell invasion in human MDA-MB-231/lapatinib cells at 20 uM; assay type: functional
[21] = biological target: T1, Epidermal growth factor receptor; assay: Inhibition of human EGFR in human drug-tolerant MDA-MB-231/lapatinib cells assessed as inhibition of phosphorylation Akt1/2/3 at Ser473 of measured after 24 hrs by Western blot analysis; settings: dose 5-20 µM
[22] = biological target: T1, Epidermal growth factor receptor; assay: Inhibition of human EGFR in human MDA-MB-231 cells assessed as inhibition of phosphorylation Akt1/2/3 at Ser473 of measured after 24 hrs by Western blot analysis; assay type: cell-based; settings: dose 5-20 µM
MDA-MB-231 [23] = assay: Inhibition of Wnt/beta-Catenin signaling in drug-tolerant human MDA-MB-231/lapatinib cells assessed as increase in nuclear expression of p-beta-catenin level at 20 uM incubated for 24 hrs by Western blot analysis
MDA-MB-231 [24] = assay: Induction of apoptosis in drug-tolerant human MDA-MB-231 cells/lapatinib cells assessed as apoptotic rate at 20 uM measured after 24 hrs by flow cytometry; assay type: functional
MDA-MB-231 [25] = assay: Inhibition of cell stemness in human drug-tolerant MDA-MB-231/lapatinib cells assessed as inhibition of SOX-2 expression at 20 uM after 24 hrs by qRT-PCR analysis; assay type: functional, cell-based
[26] = biological target: T1, Epidermal growth factor receptor; assay: Inhibition of exogenous EGFR (unknown origin)
[27] = biological target: T2, Aldehyde dehydrogenase 1A1 (Homo sapiens, UniProt P00352); assay: Inhibition of ALDH1A1 in human drug-tolerant MDA-MB-231/lapatinib cells assessed as after 24 hrs
T2 sequence (P00352 whole entry): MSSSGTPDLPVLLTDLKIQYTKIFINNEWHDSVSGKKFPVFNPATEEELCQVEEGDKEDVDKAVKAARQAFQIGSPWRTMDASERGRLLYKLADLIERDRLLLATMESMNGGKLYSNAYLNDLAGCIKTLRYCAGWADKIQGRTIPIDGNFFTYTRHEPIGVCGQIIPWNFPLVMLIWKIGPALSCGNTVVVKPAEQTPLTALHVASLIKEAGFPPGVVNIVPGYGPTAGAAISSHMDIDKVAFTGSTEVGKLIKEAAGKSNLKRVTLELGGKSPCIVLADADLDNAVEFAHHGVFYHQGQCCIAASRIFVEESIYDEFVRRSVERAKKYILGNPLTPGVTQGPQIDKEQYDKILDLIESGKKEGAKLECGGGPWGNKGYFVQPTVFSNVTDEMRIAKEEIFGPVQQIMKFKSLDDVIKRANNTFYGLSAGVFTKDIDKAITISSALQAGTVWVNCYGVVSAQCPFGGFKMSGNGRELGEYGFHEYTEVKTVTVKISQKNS

MDA-MB-231 [28] = assay: Inhibition of cell stemness in drug-tolerant human MDA-MB-231/lapatinib cells assessed as inhibition of ALDH1A1 expression at 20 uM after 24 hrs by flow cytometry; assay type: functional
[29] = biological target: T1, Epidermal growth factor receptor; assay: Inhibition of human EGFR phosphorylation in human MDA-MB-231 cells measured after 24 hrs by Western blot analysis; assay type: cell-based; settings: dose 5-20 µM
[30] = Octanol/water partition coefficient, log P of the compound by shake flask method based thermodynamic solubility assay; assay type: physicochemical
MDA-MB-231 [31] = assay: Inhibition of cell stemness in human drug-tolerant MDA-MB-231/lapatinib cells assessed as inhibition of OCT4 expression at 20 uM after 24 hrs by qRT-PCR analysis; assay type: functional, cell-based
MDA-MB-231 [32] = assay: Inhibition of colony formation in human drug-tolerant MDA-MB-231/lapatinib cells at 5 uM measured after 24 hrs; assay type: functional
MDA-MB-231 [33] = assay: Inhibition of Wnt/beta-Catenin signaling in drug-tolerant human MDA-MB-231/lapatinib cells assessed as reduction in p-GSK3beta level at 20 uM incubated for 24 hrs by Western blot analysis
MDA-MB-231 [34] = assay: Inhibition of Wnt/beta-Catenin signaling in drug-tolerant human MDA-MB-231/lapatinib cells assessed as reduction in cyclin D1 mRNA level at 20 uM incubated for 24 hrs by qRT-PCR analysis

Question: What does the source list for `CC(OC(=O)CCCC(=O)N(CCS(C)(=O)=O)Cc1ccc(-c2ccc3ncnc(Nc4ccc(OCc5cccc(F)c5)c(Cl)c4)c3c2)o1)c1cc2c(o1)C(=O)c1ccccc1C2=O` (stereo unspecified)?
Answer: inhibition (MDA-MB-231 [1]): Active; inhibition [2]: Dose-Dependent Effect; IC50 (MCF7): 3860 nM; inhibition (MDA-MB-231 [3]): Active; IC50 (MDA-MB-231 [4]): 2040 nM; Activity (MDA-MB-231 [5]): Active; Activity (MDA-MB-231 [6]): Active; Ratio IC50 [7]: 0.82; inhibition at 20 µM (MDA-MB-231 [8]): 52.2%; inhibition (MDA-MB-231 [9]): Active; Activity (MDA-MB-231 [10]): Active; inhibition (MDA-MB-231 [11]): Active; inhibition (MDA-MB-231 [12]): Active; IC50 (MDA-MB-231 [13]): 1690 nM; inhibition at 20 µM (MDA-MB-231 [14]): 2.03%; IC50 (MDA-MB-231 [15]): 2030 nM; inhibition (MDA-MB-231 [16]): Active; inhibition [17]: Dose-Dependent Effect; inhibition [18]: Active; IC50 (HUVEC): 63300 nM; inhibition (MDA-MB-231 [19]): Active; inhibition at 20 µM (MDA-MB-231 [20]): 77.3%; inhibition [21]: Dose-Dependent Effect; inhibition [22]: Active; inhibition (MDA-MB-231 [23]): Active; Activity (MDA-MB-231 [24]): Active; inhibition (MDA-MB-231 [25]): Active; IC50 [26]: 7.36 nM; IC50 [27]: 135 nM; inhibition at 20 µM (MDA-MB-231 [28]): 71.2%; inhibition [29]: Dose-Dependent Effect; logP [30]: 2.15; inhibition (MDA-MB-231 [31]): Active; inhibition at 5 µM (MDA-MB-231 [32]): 10.9%; inhibition (MDA-MB-231 [33]): Active; inhibition (MDA-MB-231 [34]): Active
